Source: patent EP1401829B1, “NOVEL HETEROCYCLIC ANTIBACTERIAL COMPOUNDS” (Microbiotix, Inc., priority 2001, dated 2002)
Values after ≈ are worked out from the molar mass of the structure shown. Read-outs that look alike come from different tables or passages of the source. Marks after values point to notes of the source that are not given here.

Legend:
MRSA 1094 = assay: In vivo efficacy of Compound 70 in mouse models; parameters: species or system Staphylococcus aureus; conditions: mice, 10^7 CFU/mouse + 5% Mucin; positive control, 30mg/kg, t=0
Protocol: (§1) Swiss Webster mice, ca. 20 g each, were infected with Staphylococcus aureus (Smith strain) by the intraperitoneal route. Test compounds (2, 4, 5, 6, 7, 8, 10, 12) were dissolved in 10% dimethylsulfoxide in peanut oil to a concentration of 2 mg/ml. Vancomycin was used as positive control drug (i.e., protection from lethal infection). Fifteen minutes after infection, test compounds, vancomycin, or vehicle alone were given intraperitoneally to groups of five mice each. Animals were monitored for three days, and the number of mice surviving was tabulated for each treatment.
(§2) Using the same basic procedure as described above, the in vivo efficacy of Compound 70 was also evaluated at various doses in mice infected with S. aureaus (Smith), MRSA 1094, Enterococcus faecalis, or vancomycin-resistant Enterococcus faecalis strain VRE 700802. […] Negative controls were mice infected that received no treatment. Mucin was employed as an adjuvant to facilitate bacterial infection in mice, where indicated.

[1] = test system: Enterococcus faecalis (ATCC 29212); assay: In vivo efficacy of Compound 70 in mouse models; conditions: mice, 3x10^7 CFU/mouse + 5% Mucin; positive control, 100mg/kg, t=0
Protocol: as §1, §2

[2] = test system: Staphylococcus aureus (Smith); assay: In vivo efficacy of Compound 70 in mouse models; conditions: mice, 10^8 CFU/mouse; positive control, 30mg/kg, t=0
Protocol: as §1, §2

S. aureus = assay: Minimal Inhibitory Concentration (MIC) determination, 96 well plates; assay type: cell-based, Staphylococcus aureus; conditions: Staphylococcus aureus, read-out: MIC (µg/ml) S. aureus
In short: (§3)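 Cultures seeded at approximately 1x10^5 CFU/ml in Heart-Brain Infusion medium were exposed to five compound concentrations, five data points each, for 16 to 18 hours at 37°C. Growth at OD 600 nm was expressed as percent of control, and MIC values are given in µg/ml.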

S.aureus (Smith) = assay: as above; assay type: cell-based, Staphylococcus aureus; conditions: Staphylococcus aureus
In short: (§4)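 Broth growth in Heart-Brain Infusion medium, seeded at about 1x10^5 CFU/ml, 16 to 18 hours at 37°C. Growth read at OD 600 nm as percent of untreated control; five concentrations per drug, five data points each, MIC reported in µg/ml.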

B. subtilis = assay: as above; assay type: cell-based, Bacillus subtilis; conditions: Bacillus subtilis; HBI medium, 16 to 18 hours at 37°C; read-out: MIC (µg/ml) B. subtilis
In short: as §4

E. coli = assay: as above; assay type: cell-based, Escherichia coli; conditions: Escherichia coli; HBI medium, 16 to 18 hours at 37°C; read-out: MIC (µg/ml) E. coli
In short: as §3

MRSA 1123 = assay: MIC against clinically relevant strains; assay type: cell-based; conditions: Staphylococcus aureus, methicillin resistant S. aureus strain
Protocol: (§5) The following methods were used to characterize representative compounds. Minimal Inhibitory Concentration (MIC) determinations. MIC values were determined in 96 well plates, with bacterial growth monitored at OD 600 nm in 200µl following an initial bacterial seeding at approximately 1x10^5 colony forming units (CFU)/ml. Each drug is evaluated at five concentrations, with five data points at each dilution. MIC values (µg/ml) were determined against actively growing cultures in Heart-Brain Infusion (HBI) medium. Cell growth in cultures supplemented with a test compound was calculated as a percent of control at OD 600 nm after 16 to 18 hours at 37°C. This plate format conserves test compound and provides precise, quantitative data with low standard deviation determinations. Polymerase IIIC (Pol IIIC) assay. DNA polymerase activity (or inhibition thereof) was measured in a 96-well plate format. B. subtilis Pol IIIC was isolated as described by Hammond and Brown (Protein Expr. Purif., 3: 65-70 (1992)). Each 25 µl assay contained 30 mM Tris, pH 7.5, 10 mM magnesium acetate, 4 mM dithiothreitol, 20% glycerol, with 25 µM dATP, dCTP, dGTP and 10 µM dTTP (^3H-labelled at 1.44 Ci/mmole) and 0.4 mg/ml activated calf thymus DNA as substrates, as described previously (see Barnes et al, op. cit). Assays were initiated by the addition of 0.025 to 0.06 units of enzyme 1 unit is the amount required to incorporate 250 pmoles of [^3H] dTMP in a standard assay), incubated for 10 minutes at 30°C and terminated by the addition of 200 µl of cold 10% trichloroacetic acid (TCA),10 mM sodium pyrophosphate. Precipitated labeled DNA was collected on glass fiber filter plates, washed, dried, and counted in a liquid scintillation counter. Determination of Ki values. DNA polymerase activity was measured in a 96-well plate format in the absence of dGTP or dATP, depending on the structure of the test compound. Each 25 µl assay contained 30 mM Tris, pH 7.5, 10 mM magnesium acetate, 4 mM dithiothreitol, 20% glycerol, with 25 µM dATP, dCTP, and 10 µM dTTP (^3H-labelled at 1.44 Ci/mmole) and 0.4 mg/ml activated calf thymus DNA as substrates, as described previously. To each well were added 2 µl of compound solution to give final concentrations ranging from 20 - 0.027 µg/ml in the assay. Assays were initiated by the addition of 0.025 to 0.06 units of enzyme (1 unit is the amount required to incorporate 250 pmoles of [^3H] dTMP in a standard assay), incubated for 10 minutes at 30 °C and terminated by the addition of 200 µl of cold 10% trichloroacetic acid, 10 mM sodium pyrophosphate. Precipitated labeled DNA was collected on glass fiber filter plates, washed, dried, and counted in a liquid scintillation counter. Ki is the concentration of test compound that reduces the control polymerase IIIC activity by 50 percent.
(§6) Compounds were also tested for antibacterial activity against certain clinically relevant strains, e.g., methicillin sensitive (MSSA) and methicillin resistant (MRSA) strains of Staphylococcus aureus.

MSSA108 = assay: MIC against clinically relevant strains; assay type: cell-based; conditions: Staphylococcus aureus; methicillin sensitive S. aureus strain
Protocol: as §5, §6

MRSA1132 = assay: MIC against clinically relevant strains; assay type: cell-based; conditions: Staphylococcus aureus; methicillin resistant S. aureus strain
Protocol: as §5, §6

MRSA1094 = assay: MIC against clinically relevant strains; assay type: cell-based; conditions: Staphylococcus aureus; methicillin resistant S. aureus strain
Protocol: as §5, §6

B. subtilis Pol IIIC = molecular target: T1, B. subtilis Pol IIIC (Bacillus subtilis, UniProt P13267); assay: Polymerase IIIC (Pol IIIC) assay, determination of Ki values; assay type: biochemical; conditions: Ki (µM) Pol IIIC, assay in absence of dGTP or dATP; Ki is the concentration that reduces control polymerase IIIC activity by 50 percent
T1 construct: made in house
T1 sequence (P13267 whole entry): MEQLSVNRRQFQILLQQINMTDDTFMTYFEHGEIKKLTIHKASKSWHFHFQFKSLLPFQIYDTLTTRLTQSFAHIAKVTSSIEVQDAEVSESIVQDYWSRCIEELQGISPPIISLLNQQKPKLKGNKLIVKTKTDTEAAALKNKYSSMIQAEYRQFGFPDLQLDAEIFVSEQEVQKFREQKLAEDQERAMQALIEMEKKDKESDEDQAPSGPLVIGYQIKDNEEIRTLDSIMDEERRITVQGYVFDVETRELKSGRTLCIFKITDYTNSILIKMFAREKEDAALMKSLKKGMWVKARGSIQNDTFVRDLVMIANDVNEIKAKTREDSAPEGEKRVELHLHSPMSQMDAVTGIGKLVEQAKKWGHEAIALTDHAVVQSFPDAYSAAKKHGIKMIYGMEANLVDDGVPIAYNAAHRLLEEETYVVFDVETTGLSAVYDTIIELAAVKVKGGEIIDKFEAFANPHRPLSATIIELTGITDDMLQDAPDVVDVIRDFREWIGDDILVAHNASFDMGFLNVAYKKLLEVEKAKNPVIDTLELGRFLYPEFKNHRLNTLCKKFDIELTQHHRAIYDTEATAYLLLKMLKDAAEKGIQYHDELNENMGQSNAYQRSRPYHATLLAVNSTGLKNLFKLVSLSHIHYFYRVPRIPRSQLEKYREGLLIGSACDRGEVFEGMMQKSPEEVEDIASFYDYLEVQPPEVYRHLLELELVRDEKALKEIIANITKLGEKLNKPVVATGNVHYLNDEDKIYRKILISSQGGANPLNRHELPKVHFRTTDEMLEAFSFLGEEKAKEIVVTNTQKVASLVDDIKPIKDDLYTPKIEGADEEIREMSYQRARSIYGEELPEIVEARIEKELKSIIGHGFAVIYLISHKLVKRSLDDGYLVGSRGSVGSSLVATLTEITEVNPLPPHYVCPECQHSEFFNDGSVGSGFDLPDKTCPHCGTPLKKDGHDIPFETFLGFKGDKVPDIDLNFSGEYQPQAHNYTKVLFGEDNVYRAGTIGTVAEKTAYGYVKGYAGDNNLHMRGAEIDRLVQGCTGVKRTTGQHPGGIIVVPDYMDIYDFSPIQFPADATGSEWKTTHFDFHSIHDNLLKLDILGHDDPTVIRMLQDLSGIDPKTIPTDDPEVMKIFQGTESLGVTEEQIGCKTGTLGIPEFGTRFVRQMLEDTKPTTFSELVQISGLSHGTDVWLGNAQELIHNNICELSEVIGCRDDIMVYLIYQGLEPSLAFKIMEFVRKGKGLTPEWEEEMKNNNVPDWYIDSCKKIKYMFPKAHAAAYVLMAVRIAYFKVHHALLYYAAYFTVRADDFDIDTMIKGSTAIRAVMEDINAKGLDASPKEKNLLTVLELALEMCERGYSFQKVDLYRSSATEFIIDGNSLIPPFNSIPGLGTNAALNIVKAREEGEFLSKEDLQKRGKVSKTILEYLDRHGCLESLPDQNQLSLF
In short: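 Isolated B. subtilis Pol IIIC (0.025–0.06 units) run 10 min at 30°C in 30 mM Tris pH 7.5, 10 mM Mg acetate, 4 mM DTT, 20% glycerol. Substrates were 0.4 mg/ml activated calf thymus DNA, 25 µM dNTPs and 10 µM [3H]dTTP, with dGTP or dATP omitted per compound structure.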

E. fecium = assay: Minimal Inhibitory Concentration (MIC) determination, 96 well plates; assay type: cell-based, Enterococcus fecium; conditions: Enterococcus; HBI medium, 16 to 18 hours at 37°C; read-out: MIC (µg/ml) E. fecium
In short: as §4

E. fecalis = assay: as above; assay type: cell-based, Enterococcus fecalis; conditions: Enterococcus; HBI medium, 16 to 18 hours at 37°C; read-out: MIC (µg/ml) E. fecalis
In short: as §4

[3] = HBI medium, 16 to 18 hours at 37°C
[4] = HBI medium, 16 to 18 hours at 37°C, read-out: MIC (µg/ml) S.aureus (Smith)
[5] = table of MSSA/MRSA strains, read-out: MIC (µg/ml) S. aureus (Smith)

Row | Structure (SMILES) | % Survival at 72 hours (MRSA 1094) | % Survival at 72 hours [1] | % Survival at 72 hours [2] | MIC (S. aureus; [3]) [µg/mL] | MIC (S. aureus; table of MSSA/MRSA strains) [µg/mL] | MIC (S.aureus (Smith); [4]) [µg/mL] | MIC (S.aureus (Smith); [5]) [µg/mL] | MIC (B. subtilis) [µg/mL] | MIC (E. coli) [µg/mL] | MIC (MRSA 1123) [µg/mL] | MIC (MSSA108) [µg/mL] | MIC (MRSA1132) [µg/mL] | MIC (MRSA1094) [µg/mL] | Ki (B. subtilis Pol IIIC) [µM] | MIC (E. fecium) [µg/mL] | MIC (E. fecalis) [µg/mL]
1 | CN[C@H](CC(C)C)C(=O)N[C@H]1C(=O)N[C@@H](CC(N)=O)C(=O)N[C@H]2C(=O)N[C@H]3C(=O)N[C@H](C(=O)N[C@H](C(=O)O)c4cc(O)cc(O)c4-c4cc3ccc4O)[C@H](O)c3ccc(c(Cl)c3)Oc3cc2cc(c3O[C@@H]2O[C@H](CO)[C@@H](O)[C@H](O)[C@H]2O[C@H]2C[C@](C)(N)[C@H](O)[C@H](C)O2)Oc2ccc(cc2Cl)[C@H]1O [vancomycin, reference compound] | 95% (19/20)** | vancomycin (100mg/kg, t=0) 100% (10/10)** | 100% (20/20)** | – | – | – | – | – | – | – | – | – | – | – | – | –
2 | CCc1cc(Nc2cc(=O)n(CCCCN3CCN(c4c(F)cc5c(=O)c(C(=O)O)cn(CC)c5c4F)CC3)c(=O)[nH]2)ccc1C [Compound 7, 3-{4-[1-(1-ethyl-3-carboxy-4-oxo-6,8-difluoro-7-quinolyl)-4-piperazinyl]butyl}-6-(3-ethyl-4-methylanilino)uracil] | – | – | – | 0.625 (≈ 0.982 µM) | 0.625 (≈ 0.982 µM) | 1.25 (≈ 1.96 µM) | 0.625 (≈ 0.982 µM) | 0.156 (≈ 0.245 µM) | > 20 | 0.625 (≈ 0.982 µM) | 0.313 (≈ 0.492 µM) | 0.625 (≈ 0.982 µM) | 0.625 (≈ 0.982 µM) | 0.021 | 1.25 (≈ 1.96 µM) | 1.25 (≈ 1.96 µM)
3 | CCc1cc(Nc2cc(=O)n(CCCCN3CCN(c4c(F)cc5c(=O)c(C(=O)O)cn(CC)c5c4Cl)CC3)c(=O)[nH]2)ccc1C [Compound 5, 3-{4-[1-(1-ethyl-3-carboxy-4-oxo-6-fluoro-8-chloro-7-quinolyl)-4-piperazinyl]butyl}-6-(3-ethyl-4-methylanilino)uracil] | – | – | – | 0.156 (≈ 0.239 µM) | 0.156 (≈ 0.239 µM) | 0.156 (≈ 0.239 µM) | 0.156 (≈ 0.239 µM) | 0.078 (≈ 0.119 µM) | 10 (≈ 15.3 µM) | 0.625 (≈ 0.957 µM) | 0.625 (≈ 0.957 µM) | 0.625 (≈ 0.957 µM) | 0.625 (≈ 0.957 µM) | 0.016 | 2.5 (≈ 3.83 µM) | 1.25 (≈ 1.91 µM)
